EC50 data for two compounds are collected here from US12427192B2, “Water soluble adjuvant and composition containing same” (Sumitomo Pharma Co., Ltd., priority 2019, dated 2025).

Broadly, the EC50 is the concentration giving half of the maximal effect.

One assay concerns the target T1, human TLR7 (Homo sapiens, UniProt Q9NYK1).
T1 construct: expresses full-length human TLR7 and secretory alkaline phosphatase (SEAP) reporter gene; host or cells: HEK293 (TLR7/NF-κB/SEAPorter)
T1 sequence (Q9NYK1 27-1049): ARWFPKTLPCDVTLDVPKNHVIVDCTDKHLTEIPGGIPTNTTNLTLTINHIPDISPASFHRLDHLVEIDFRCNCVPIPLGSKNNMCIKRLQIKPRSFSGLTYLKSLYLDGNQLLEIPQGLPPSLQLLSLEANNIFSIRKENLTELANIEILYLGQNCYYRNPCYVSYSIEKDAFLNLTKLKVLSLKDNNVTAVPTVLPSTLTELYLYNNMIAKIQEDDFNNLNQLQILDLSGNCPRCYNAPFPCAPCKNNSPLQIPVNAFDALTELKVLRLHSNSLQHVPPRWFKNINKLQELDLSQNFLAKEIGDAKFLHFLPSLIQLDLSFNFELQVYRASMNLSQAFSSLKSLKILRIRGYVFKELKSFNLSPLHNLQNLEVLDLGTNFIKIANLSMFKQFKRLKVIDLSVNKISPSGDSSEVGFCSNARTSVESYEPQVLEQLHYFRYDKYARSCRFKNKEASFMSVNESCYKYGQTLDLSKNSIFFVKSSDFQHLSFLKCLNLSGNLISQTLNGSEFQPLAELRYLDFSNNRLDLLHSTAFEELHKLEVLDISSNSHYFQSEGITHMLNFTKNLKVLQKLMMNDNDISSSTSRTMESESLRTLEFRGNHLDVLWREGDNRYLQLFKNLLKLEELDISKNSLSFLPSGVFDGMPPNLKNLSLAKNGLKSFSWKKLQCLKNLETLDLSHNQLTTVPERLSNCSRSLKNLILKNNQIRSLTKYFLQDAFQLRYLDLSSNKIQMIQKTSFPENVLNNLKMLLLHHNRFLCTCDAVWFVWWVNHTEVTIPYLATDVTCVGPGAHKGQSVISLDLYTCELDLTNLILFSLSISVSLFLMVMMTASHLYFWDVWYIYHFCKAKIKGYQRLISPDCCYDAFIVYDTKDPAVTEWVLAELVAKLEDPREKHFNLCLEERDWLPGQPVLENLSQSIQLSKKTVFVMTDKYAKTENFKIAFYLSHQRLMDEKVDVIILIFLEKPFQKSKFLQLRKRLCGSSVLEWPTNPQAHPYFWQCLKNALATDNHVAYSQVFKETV
Briefly: Human TLR7 reporter gene assay (TLR7/NF-κB/SEAPorter HEK293 cell line), Tests 1 and 21. It is filed as cell-based. The following applies: Test 1; TLR7/NF-κB/SEAPorter HEK293 cell line; half of maximal SEAP induction; 24-hour incubation, 0.1% DMSO; read-out: EC50. An excerpt:
Human TLR7 Reporter Gene Assay
TLR7/NF-κB/SEAPorter™ HEK293 cell line (Imgenex Corporation) is a stably co-transfected cell line which expresses full-length human TLR7 and secretory alkaline phosphatase (SEAP) reporter gene under the transcriptional regulation of an NF-κB response element. The TLR7 expression of the cell line has been already tested by flow cytometry. Transfectants with stable expression were selected using the antibiotic blasticidin and Geneticin. TLR signaling leads to the translocation of NF-κB and the activation of the promoter results in expression of the SEAP gene. TLR7-specific activation was assessed by determining the level of SEAP produced following 24-hour incubation of the cells at 37° C. with each compound prepared in Examples and Reference examples in the presence of 0.1% (v/v) dimethylsulfoxide (DMSO). The human TLR7 activity for the present compound was assessed by human TLR7 reporter gene assay, and the results are shown in Tables 3 and 4 as the compound concentration which produced half of the maximal level of SEAP induction (EC50)
According to the method of Test 1, human TLR7 reporter gene assay was done with the following samples, and the result was shown in the table below.

A further assay has as its target T2, mouse TLR7 (Mus musculus, UniProt P58681).
T2 construct: expresses full-length mouse TLR7 and secretory SEAP reporter gene; host or cells: HEK-Blue mTLR7 (HEK293-derived)
T2 sequence (P58681 27-1050): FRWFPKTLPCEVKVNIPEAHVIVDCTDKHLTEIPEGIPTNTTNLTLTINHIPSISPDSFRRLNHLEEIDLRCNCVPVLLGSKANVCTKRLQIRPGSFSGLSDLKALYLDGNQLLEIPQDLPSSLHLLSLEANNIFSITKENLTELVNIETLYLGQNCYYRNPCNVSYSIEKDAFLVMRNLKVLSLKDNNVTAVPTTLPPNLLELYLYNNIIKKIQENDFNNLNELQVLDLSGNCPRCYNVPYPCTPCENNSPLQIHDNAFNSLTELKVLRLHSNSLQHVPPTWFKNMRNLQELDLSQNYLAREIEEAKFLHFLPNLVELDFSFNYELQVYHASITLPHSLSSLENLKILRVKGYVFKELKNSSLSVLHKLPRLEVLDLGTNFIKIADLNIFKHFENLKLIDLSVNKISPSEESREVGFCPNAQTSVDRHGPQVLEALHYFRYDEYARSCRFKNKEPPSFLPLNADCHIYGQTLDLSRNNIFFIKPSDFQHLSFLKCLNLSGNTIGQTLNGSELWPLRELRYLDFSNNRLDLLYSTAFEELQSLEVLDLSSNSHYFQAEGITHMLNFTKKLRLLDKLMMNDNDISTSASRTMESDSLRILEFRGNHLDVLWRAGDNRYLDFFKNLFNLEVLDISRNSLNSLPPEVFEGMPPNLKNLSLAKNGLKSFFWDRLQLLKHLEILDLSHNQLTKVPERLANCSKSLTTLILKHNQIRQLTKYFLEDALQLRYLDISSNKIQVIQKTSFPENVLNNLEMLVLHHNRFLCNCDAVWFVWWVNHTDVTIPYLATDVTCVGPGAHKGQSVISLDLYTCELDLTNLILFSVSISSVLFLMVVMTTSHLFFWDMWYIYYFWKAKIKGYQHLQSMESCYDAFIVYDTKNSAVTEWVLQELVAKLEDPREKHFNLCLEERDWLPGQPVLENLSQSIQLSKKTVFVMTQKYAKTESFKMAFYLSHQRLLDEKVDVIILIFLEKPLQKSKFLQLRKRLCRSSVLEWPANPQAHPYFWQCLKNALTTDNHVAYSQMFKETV
Briefly: Mouse TLR7 reporter gene assay (HEK-Blue mTLR7 cell line), Test 2. It is filed as cell-based. Conditions: half of maximal SEAP induction, 20-24-hour incubation, 0.1% DMSO. An excerpt:
Test 2 Mouse TLR7 Reporter Gene Assay
HEK-Blue™ mTLR7 cell line (Invivogen) is a stably co-transfected cell line which expresses full-length mouse TLR7 and secretory SEAP reporter gene under the transcriptional regulation of an NF-κB response element. The TLR7 expression of the cell line has been already tested by RT-PCR. Transfectants with stable expression were selected using the antibiotic blasticidin and Zeocin. TLR signaling leads to the translocation of NF-κB and the activation of the promoter results in expression of the SEAP gene. TLR7-specific activation was assessed by determining the level of SEAP produced following 20-24-hour incubation of the cells at 37° C. with each compound prepared in Examples and Reference examples in the presence of 0.1% (v/v) DMSO. The mouse TLR7 activity for the present compound was assessed by mouse TLR7 reporter gene assay, and the results are shown in Tables 5 and 6 as the compound concentration which produced half of the maximal level of SEAP induction (EC50).
In general terms: A reporter such as luciferase makes a cellular process visible.

Consider `CCCCCNc1nc(N)nc(C)c1Cc1ccc(CNC)cc1OC` [Reference example 12, 5-({2-methoxy-4-[(methylamino)methyl]phenyl}methyl)-6-methyl-N^4-pentylpyrimidine-2,4-diamine, reference compound], for which the EC50 came out at 50 nM at human TLR7 and 15 nM at mouse TLR7.

Regarding `CCCCCNc1nc(N)nc(C)c1Cc1ccc(CN(C)CCOCCOCCOCCOCCO)cc1OC` [Example 1, 1-(4-{[2-amino-4-methyl-6-(pentylamino)pyrimidin-5-yl]methyl}-3-methoxyphenyl)-2-methyl-5,8,11,14-tetraoxa-2-azahexadecan-16-ol·trifluoroacetate], the EC50 on human TLR7 stood at 68 nM; on mouse TLR7, 28 nM.
